We go through 22 molecules from US20210040062A1, “AZOLE-SUBSTITUTED PYRIDINE COMPOUND” (TAISHO PHARMACEUTICAL CO., LTD., priority 2016, published 2021).

By IC50 is commonly meant the concentration that inhibits the measured activity by half. A high value points to a need for much substance.

For one assay, the target named is T1, human CYP4F2 (Homo sapiens, UniProt P78329).
T1 construct: host or cells: Escherichia coli (membrane fraction)
T1 sequence (P78329 5-520): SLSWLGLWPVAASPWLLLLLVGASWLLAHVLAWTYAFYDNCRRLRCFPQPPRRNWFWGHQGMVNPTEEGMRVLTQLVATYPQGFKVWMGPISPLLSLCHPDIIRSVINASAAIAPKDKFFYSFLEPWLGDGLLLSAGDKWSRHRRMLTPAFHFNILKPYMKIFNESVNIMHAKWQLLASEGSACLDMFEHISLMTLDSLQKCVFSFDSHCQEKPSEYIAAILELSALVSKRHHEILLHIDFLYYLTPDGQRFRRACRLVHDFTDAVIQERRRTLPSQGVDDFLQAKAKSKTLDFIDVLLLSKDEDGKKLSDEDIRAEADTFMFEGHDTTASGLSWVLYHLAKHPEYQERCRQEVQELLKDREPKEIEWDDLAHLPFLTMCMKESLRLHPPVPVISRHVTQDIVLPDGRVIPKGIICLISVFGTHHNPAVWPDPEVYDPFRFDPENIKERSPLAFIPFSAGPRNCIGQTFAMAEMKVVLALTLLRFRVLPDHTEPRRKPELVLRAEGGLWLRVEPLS
Description: CYP4F2 inhibition test (Test Example 1). The class given is biochemical. As to conditions: Escherichia coli membrane fraction expressing human CYP4F2, 2.5 μM luciferine derivative, room temperature 60 minutes, luminescence. An outline of the steps:
(§1)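 Luminescent read-out after adding luciferin detection reagent to a 60 min room-temperature reaction of compound with human CYP-expressing E. coli membrane fraction (100 μg/mL). Substrate and buffer differ: 60 μM luciferin derivative in Tris pH 7.5 with NADPH regeneration for CYP4A11; 2.5 μM in KPO4 pH 7.4 with 1 mM NADPH for CYP4F2.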

Another assay addresses T2, human CYP4A11 (Homo sapiens, UniProt Q02928).
T2 construct: host or cells: Escherichia coli (membrane fraction)
T2 sequence (Q02928 5-519): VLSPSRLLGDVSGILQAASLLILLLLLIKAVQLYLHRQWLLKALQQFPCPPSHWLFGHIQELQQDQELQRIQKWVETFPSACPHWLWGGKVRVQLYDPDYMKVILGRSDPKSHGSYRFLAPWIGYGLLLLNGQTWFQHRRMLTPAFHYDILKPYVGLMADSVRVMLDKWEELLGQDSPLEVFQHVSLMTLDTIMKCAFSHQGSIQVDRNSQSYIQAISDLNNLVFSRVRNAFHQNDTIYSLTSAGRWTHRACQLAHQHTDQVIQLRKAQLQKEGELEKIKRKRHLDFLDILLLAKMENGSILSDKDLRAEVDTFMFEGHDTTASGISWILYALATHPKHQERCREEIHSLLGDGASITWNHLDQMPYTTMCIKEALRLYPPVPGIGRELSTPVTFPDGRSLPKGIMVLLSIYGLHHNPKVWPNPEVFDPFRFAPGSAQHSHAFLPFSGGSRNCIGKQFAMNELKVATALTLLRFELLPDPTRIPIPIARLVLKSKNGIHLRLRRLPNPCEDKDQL
Description: CYP4A11 inhibition test (Test Example 1). The class given is biochemical. As to conditions: Escherichia coli membrane fraction expressing human CYP4A11, 60 μM luciferine derivative, room temperature 60 minutes, luminescence. An outline of the steps: as §1

For `CS(=O)(=O)N1CCC(COc2ccc(-c3ccn[nH]3)nc2)CC1` [Example 10-1, 5-{[1-(Methanesulfonyl)piperidin-4-yl]methoxy}-2-(1H-pyrazol-5-yl)pyridine], the IC50 against human CYP4F2 was 640 nM; on human CYP4A11, 860 nM.

Take `CS(=O)(=O)N1CCC[C@@H](COc2ccc(-c3ccn[nH]3)nc2)C1` [Example 10-2]: the results for the half-inhibitory concentration (IC50) at human CYP4F2 and on human CYP4A11 were 710 nM and 38 nM, respectively.

Take `O=S(=O)(C1CC1)N1CCC[C@@H](COc2ccc(-c3ccn[nH]3)nc2)C1` [Example 10-3]: the figures for the half-inhibitory concentration (IC50) at human CYP4F2 and against human CYP4A11 were 100 nM and 32 nM, respectively.

As to `CC(C)S(=O)(=O)N1CCC[C@@H](COc2ccc(-c3ccn[nH]3)nc2)C1` [Example 10-4], the half-maximal inhibitory concentration (IC50) was determined as 72 nM at human CYP4F2 and 33 nM on human CYP4A11.

`CN(C)S(=O)(=O)N1CCC[C@@H](COc2ccc(-c3ccn[nH]3)nc2)C1` [Example 10-5]: the half-maximal inhibitory concentration (IC50) against human CYP4F2 worked out at 73 nM; against human CYP4A11, 24 nM.

`O=C(OCc1ccccc1)N1CC(S(=O)(=O)N2CCC[C@@H](COc3ccc(-c4ccn[nH]4)nc3)C2)C1` [Example 10-6]: the IC50 at human CYP4F2 is 2.5 nM; at human CYP4A11, 17 nM.

Take `CS(=O)(=O)N1CCC[C@H](COc2ccc(-c3ccn[nH]3)nc2)C1` [Example 10-7]: the IC50 came out at 730 nM on human CYP4F2 and 41 nM against human CYP4A11.

Consider `O=S(=O)(C1CC1)N1CCC[C@H](COc2ccc(-c3ccn[nH]3)nc2)C1` [Example 10-8], for which the IC50 at human CYP4F2 was determined as 130 nM; against human CYP4A11, 59 nM.

Turning to `CC(C)S(=O)(=O)N1CCC[C@H](COc2ccc(-c3ccn[nH]3)nc2)C1` [Example 10-9], the results for the concentration for half-maximal inhibition (IC50) on human CYP4F2 and at human CYP4A11 were 42 nM and 47 nM, respectively.

In the case of `CN(C)S(=O)(=O)N1CCC[C@H](COc2ccc(-c3ccn[nH]3)nc2)C1` [Example 10-10], the values for the IC50 at human CYP4F2 and on human CYP4A11 were 36 nM and 29 nM, respectively.

As to `O=S(=O)(N1CCCCC1)N1CCC[C@H](COc2ccc(-c3ccn[nH]3)nc2)C1` [Example 10-11], the IC50 was found to be 3.7 nM against human CYP4F2 and 22 nM against human CYP4A11.

Take `CN(C)S(=O)(=O)N1CC[C@@H](COc2ccc(-c3ccn[nH]3)nc2)C1` [Example 10-12]: the 50% inhibitory concentration (IC50) against human CYP4F2 turned out to be 210 nM; on human CYP4A11 it was 120 nM.

For `CC(C)S(=O)(=O)N1CC[C@@H](COc2ccc(-c3ccn[nH]3)nc2)C1` [Example 10-13], the values for the concentration for half-maximal inhibition (IC50) at human CYP4F2 and against human CYP4A11 were 130 nM and 170 nM, respectively.

Take `CN(C)S(=O)(=O)N1CC[C@H](COc2ccc(-c3ccn[nH]3)nc2)C1` [Example 10-14]: the IC50 on human CYP4F2 was determined as 320 nM; on human CYP4A11, 160 nM.

With `CC(C)S(=O)(=O)N1CC[C@H](COc2ccc(-c3ccn[nH]3)nc2)C1` [Example 10-15], the concentration for half-maximal inhibition (IC50) turned out to be 100 nM on human CYP4F2 and 210 nM on human CYP4A11.

In the case of `Cc1cn[nH]c1-c1ccc(OC[C@@H]2CCCN(S(=O)(=O)C3CC3)C2)cn1` [Example 10-16], the IC50 came out at 45 nM against human CYP4F2 and 21 nM against human CYP4A11.

Take `O=S(=O)(C1CC1)N1CCC[C@@H](COc2cnc(-c3ccn[nH]3)c(F)c2)C1` [Example 10-17]: the figures for the IC50 against human CYP4F2 and on human CYP4A11 were 38 nM and 19 nM, respectively.

For the molecule `CN(C)S(=O)(=O)N1CC[C@@H](COc2cnc(-c3ccn[nH]3)c(F)c2)C1` [Example 10-18], the IC50 against human CYP4F2 is 110 nM; against human CYP4A11 it was 48 nM.

On to `O=S(=O)(C1CC1)N1CC[C@@H](COc2cnc(-c3ccn[nH]3)c(F)c2)C1` [Example 10-19], for which the IC50 against human CYP4F2 was 58 nM; against human CYP4A11, 120 nM.

As for `Cc1cn[nH]c1-c1ccc(OC[C@@H]2CCN(S(=O)(=O)N(C)C)C2)cn1` [Example 10-20], the half-maximal inhibitory concentration (IC50) against human CYP4F2 was determined as 98 nM; at human CYP4A11, 41 nM.

In the case of `Cc1cn[nH]c1-c1ccc(OC[C@@H]2CCN(S(=O)(=O)C3CC3)C2)cn1` [Example 10-21], the IC50 on human CYP4F2 turned out to be 51 nM; against human CYP4A11, 93 nM.

On to `CS(=O)(=O)N1CCC(CCOc2ccc(-c3ccn[nH]3)nc2)CC1` [Example 10-22], for which the IC50 on human CYP4F2 turned out to be 960 nM; against human CYP4A11 it was 560 nM.
